PubChem BioAssay (NCI)
Where “and” joins values, the source holds several entries; their conditions need not be identical. Equal entries are not always repeated.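 Where inhibition never reached the appropriate level, the endpoint shown equals the highest concentration tested. Otherwise, values were interpolated linearly from a five-concentration, 48-hour dose response in 96-well plates. The concentration for 50% growth inhibition is given as GI50. At the TGI there is no net growth.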

Assays:
Assay in all cases: NCI-60 cell line screen, 48 h
HS 578T breast = test system: HS 578T breast
IGROV1 ovarian = test system: IGROV1 ovarian
MALME-3M melanoma = test system: MALME-3M melanoma
MCF7 breast = test system: MCF7 breast
NCI/ADR-RES ovarian = test system: NCI/ADR-RES ovarian
OVCAR-4 ovarian = test system: OVCAR-4 ovarian
RXF 393 renal = test system: RXF 393 renal
SF-539 CNS = test system: SF-539 CNS
SW-620 colon = test system: SW-620 colon
U251 CNS = test system: U251 CNS

Row | SMILES | GI50 (HS 578T breast) | TGI (HS 578T breast) | GI50 (IGROV1 ovarian) | TGI (IGROV1 ovarian) | GI50 (MALME-3M melanoma) | TGI (MALME-3M melanoma) | GI50 (MCF7 breast) | TGI (MCF7 breast) | GI50 (NCI/ADR-RES ovarian) | TGI (NCI/ADR-RES ovarian) | GI50 (OVCAR-4 ovarian) | TGI (OVCAR-4 ovarian) | GI50 (RXF 393 renal) | TGI (RXF 393 renal) | GI50 (SF-539 CNS) | TGI (SF-539 CNS) | GI50 (SW-620 colon) | TGI (SW-620 colon) | GI50 (U251 CNS) | TGI (U251 CNS)
1 | Cc1cc2c(cc1Cl)S/C(=C/C(=O)O)C(Nc1ccc3ncsc3c1)=NS2(=O)=O | 9810 nM | > 40.9 µM | 31900 nM | > 100 µM | > 35300 nM | > 55.4 µM | 8750 nM | > 92.5 µM | > 18100 nM | > 34.7 µM | > 34300 nM | > 54.5 µM | 19800 nM | > 100 µM | 9660 nM | > 34.6 µM | 16300 nM | > 56 µM | 28600 nM | > 63.9 µM
2 | Nc1ccc(C2=CC(c3ccc(Cl)cc3)N3C=CSC3=N2)cc1 (stereo not given) | 23500 nM | > 100 µM | 2530 nM | 6.69 µM | 18100 nM | 47.8 µM | 1220 nM | 4.52 µM | 7890 nM | > 100 µM | 13000 nM | > 100 µM | 2030 nM | 4.18 µM | 1840 nM | 3.85 µM | 2070 nM | 4.51 µM | 2940 nM | 12.1 µM
3 | COc1ccc2c(c1)c(-c1nc(-c3c[nH]c4ccncc34)cs1)cn2C | 2030 nM | 4.02 µM | 1910 nM | 3.54 µM | 1740 nM | 3.28 µM | 1470 nM | 3.09 µM | 1760 nM | 3.38 µM | 1890 nM | 3.71 µM | 1490 nM | 2.88 µM | 1650 nM | 3.09 µM | 1750 nM | 3.27 µM | 1870 nM | 3.3 µM
4 | COc1ccc(-c2nc(-c3ccc(C)cc3)cn3ccnc23)cc1 | 20400 nM | > 50 µM | 2430 nM | > 50 µM | – | – | 3050 nM | > 50 µM | 2160 nM | > 50 µM | – | – | 2410 nM | 18.5 µM | 5730 nM | 31 µM | 2800 nM | > 50 µM | 3420 nM | > 50 µM
5 | CNC(=O)c1c(NC(=O)c2ccc(C(C)(C)C)cc2)sc2c1CCC(=O)C2 | 380 nM | 3.07 µM | 373 nM | 1.64 µM | 345 nM | 1.59 µM | 264 nM | 1.33 µM | 313 nM | 1.29 µM | 195 nM | 0.991 µM | 244 nM | 1.01 µM | 244 nM | 1.22 µM | 98.4 nM | 1.27 µM | 143 nM | 1.45 µM
6 | COc1ncc(Nc2ncc([C@@H](C)N3CCN(S(C)(=O)=O)CC3)cc2-c2nc(C)nc(N)n2)cc1F | 24.4 nM | 3.02 µM | 13.9 nM | 0.0829 µM | 199 nM | 10.5 µM | 14.7 nM | > 100 µM | 1610 nM | > 100 µM | 3290 nM | > 100 µM | 15.8 nM | 0.453 µM | 87.6 nM | 1.45 µM | 2820 nM | > 100 µM | 385 nM | > 100 µM
7 | CCCCCCCCCCCCCCCCCCn1cc[n+](C)c1 | 335 nM | 1.8 µM | 253 nM and 516 nM | – | – | – | 513 nM and 1000 nM | 1.79 µM and 2.35 µM | 1580 nM | 5.47 µM | 645 nM and 518 nM | – | 451 nM | 1.54 µM | 1060 nM | 2.4 µM | 624 nM | 1.96 µM | 372 nM and 397 nM | 1.51 µM
8 | COC(=O)C1=C(O)[C@H](C(=O)OC)C2(O)C(C(=O)OC)[C@H](c3ccc(OC(=O)C(C)c4ccc(CC(C)C)cc4)cc3)C[C@@H]1[C@@H]2C(=O)OC (stereo not given in full) | 33000 nM | > 50 µM | 15000 nM | 41.3 µM | – | – | 8180 nM | > 50 µM | > 50000 nM | > 50 µM | 11700 nM | > 50 µM | – | – | 1400 nM | 8.05 µM | 18100 nM | > 50 µM | 11600 nM | 30.2 µM
9 | COc1cc(Nc2ncc(-c3ccccc3)o2)cc(OC)c1 | 1390 nM | > 9.65 µM | > 25000 nM | > 25 µM | > 25000 nM | > 25 µM | > 25000 nM | > 25 µM | > 25000 nM | > 25 µM | > 25000 nM | > 25 µM | 8400 nM | > 25 µM | > 25000 nM | > 25 µM | > 25000 nM | > 25 µM | > 25000 nM | > 25 µM
10 | CC1C(C)N(C(=O)CCl)c2ccccc2N1C(=O)CCl (stereo not given) | 1060 nM | 7.63 µM | 203 nM | 0.435 µM | 365 nM | 1.32 µM | 318 nM | 1.6 µM | 784 nM | 13.3 µM | 499 nM | 1.73 µM | 266 nM | 0.961 µM | 1400 nM | 2.89 µM | 209 nM | 0.485 µM | 755 nM | 2.14 µM
11 | OC(COC(c1ccccc1)(c1ccccc1)c1ccccc1)C(O)CC1SCCS1 (stereo not given) | – | 39.7 µM | – | 30.5 µM | – | 26.3 µM | – | 71.9 µM | – | 52.9 µM | – | – | – | 32.1 µM | – | 43.8 µM | – | > 100 µM | – | 62.4 µM
12 | CCOC(=O)c1cc2c(cc1Cl)SC(=Nc1ccccc1)N(S(=O)(=O)c1ccc(Cl)cc1)S2(=O)=O | 17000 nM | 52.9 µM | 8110 nM | 22.5 µM | – | – | 4380 nM | 15.9 µM | 18300 nM | 36.5 µM | 31500 nM | > 100 µM | 11300 nM | 36.1 µM | 18300 nM | 34.8 µM | 14600 nM | 32.6 µM | 10600 nM | 25.9 µM
13 | O=S(=O)(O)c1cc(O)c(N=Nc2ccc(O)cc2O)c2ccccc12 | – | > 100 µM | – | > 100 µM | – | > 100 µM | – | – | – | > 100 µM | – | > 100 µM | – | > 100 µM | – | – | – | > 100 µM | – | > 100 µM
14 | CC1CC[P+](c2ccccc2)(c2ccccc2)c2c1ccc1ccccc21 (stereo not given) | – | 7.66 µM | 4420 nM | 21.2 µM | – | – | – | > 100 µM | – | > 100 µM | – | > 100 µM | – | 43.5 µM | – | 35.8 µM | 5950 nM | > 100 µM | 2850 nM | > 100 µM
15 | O=C(CCCN1CCC(O)(c2ccc(Cl)cc2)CC1)c1ccc(F)cc1 | – | 65.9 µM | – | > 100 µM | – | 36.2 µM | – | > 100 µM | – | 88.8 µM | – | > 100 µM | – | – | – | 60.3 µM | – | 39.6 µM | – | 41.1 µM
16 | COc1ccc2c(c1)[nH]c(=O)c1c3cccc(F)c3cn21 | 29.9 nM | 0.0904 µM | 39.7 nM | – | – | – | 220 nM | > 94.6 µM | 38 nM | 14.3 µM | 126 nM | 28.8 µM | 37.5 nM | 34.1 µM | 52.2 nM | 0.455 µM | 34.3 nM | 25.8 µM | 47.2 nM | 14.8 µM
17 | Cc1ccc(/C=N/Nc2nc(Nc3ccccc3)nc(-n3nc(C)cc3C)n2)cc1 | 5030 nM | 56.5 µM | 4990 nM | 44.8 µM | 4210 nM | 26.8 µM | 2890 nM | 10.6 µM | 2530 nM | 8.67 µM | 3060 nM | 25.5 µM | – | – | 4500 nM | 25.1 µM | 5750 nM | > 100 µM | 4880 nM | > 100 µM
18 | COC(=O)[C@H](Cc1cnc[nH]1)NC(=O)[C@@H](NC(=O)Nc1cc(C(F)(F)F)cc(C(F)(F)F)c1)C(C)C | 16800 nM | 47.6 µM | 18100 nM | 36.1 µM | 16900 nM | 32.2 µM | 14400 nM | 29.6 µM | 33700 nM | > 100 µM | 15000 nM | 29 µM | 13600 nM | 27.5 µM | 17000 nM | 32.3 µM | 18000 nM | 35.5 µM | – | –
19 | CCCCCCCCCCCCCC[N+](C)(C)CCCCCCCCCCCCCC | 5650 nM | 24.8 µM | – | – | – | – | – | – | 7420 nM | 63.4 µM | – | – | 1280 nM | 2.78 µM | – | – | – | – | – | –
20 | O=C(/C=C\c1ccc([N+](=O)[O-])cc1)c1ccccc(=O)c1O | – | 36.8 µM | – | 4.16 µM | – | 3.08 µM | – | 2.64 µM | – | 2.97 µM | – | 18.1 µM | – | – | – | – | – | > 21.6 µM | – | > 100 µM
21 | COCc1c(-c2cc3cc(C)cc(OC)c3s2)c2c(N)ncnn2c1CN1CCNC(=O)C1 | 1840 nM | 13.7 µM | 3390 nM | > 100 µM | 2830 nM | 17.3 µM | 3820 nM | 33.6 µM | 24300 nM | > 100 µM | 1880 nM | 61.1 µM | – | – | 2310 nM | 14.4 µM | 3500 nM | > 100 µM | 3860 nM | 79.7 µM
22 | CNC(=O)c1c(NC(=O)c2ccc(C(C)(C)C)cc2)sc2c(CN(C)C)c(O)ccc12 | 2020 nM | 4.56 µM | – | – | 1730 nM | 3.51 µM | 1410 nM | 2.95 µM | – | – | – | – | 1670 nM | 3.33 µM | 1660 nM | 3.13 µM | 1740 nM | 3.38 µM | – | –
23 | Cc1ccc(S(=O)(=O)SC(C)(C)C)cc1 | – | > 100 µM | – | 37.3 µM | – | > 62 µM | – | 42.1 µM | – | 90.4 µM | – | 46.5 µM | – | – | – | > 77.8 µM | – | 47.9 µM | – | > 100 µM
